Results: ChEMBL document CHEMBL1201862, “PubChem BioAssay data set” (2004)
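Method: 48-hour compound exposure of cells in 96-well plates, five concentrations, linear interpolation of endpoints. Here, GI50 denotes the concentration required for 50% inhibition of growth.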 Active and inactive are the calls of the source. Rule as the data show it: active = GI50 up to about 1.1 µM and inactive = higher.

Tests used:
Experiment in all cases: NCI anticancer screen, dose series, 48 h
786-0 = system: 786-0
A549 = system: A549
ACHN = system: ACHN
CCRF-CEM = system: CCRF-CEM
COLO 205 = system: COLO 205
DMS-114 = system: DMS-114
DMS-273 = system: DMS-273
EKVX = system: EKVX
HCC 2998 = system: HCC 2998
HCT-116 = system: HCT-116
HCT-15 = system: HCT-15
HL-60 = system: HL-60
HOP-62 = system: HOP-62
HT-29 = system: HT-29
IGROV-1 = system: IGROV-1
K562 = system: K562
KM-20L2 = system: KM-20L2
KM12 = system: KM12
LOX IMVI = system: LOX IMVI
LXFL 529 = system: LXFL 529
M14 = system: M14
M19-MEL = system: M19-MEL
MOLT-4 = system: MOLT-4
Malme-3M = system: Malme-3M
NCI-H226 = system: NCI-H226
NCI-H23 = system: NCI-H23
NCI-H460 = system: NCI-H460
NCI-H522 = system: NCI-H522
OVCAR-3 = system: OVCAR-3
OVCAR-8 = system: OVCAR-8
RPMI-8226 = system: RPMI-8226
SF-268 = system: SF-268
SF-295 = system: SF-295
SF-539 = system: SF-539
SK-MEL-28 = system: SK-MEL-28
SK-MEL-5 = system: SK-MEL-5
SK-OV-3 = system: SK-OV-3
SN12C = system: SN12C
SNB-19 = system: SNB-19
SR = system: SR
SW-620 = system: SW-620
TK-10 = system: TK-10
U-251 = system: U-251
UACC-257 = system: UACC-257
UACC-62 = system: UACC-62
UO-31 = system: UO-31
XF498 = system: XF498
A498 = system: A498
CAKI-1 = system: CAKI-1
DLD-1 = system: DLD-1
HOP-18 = system: HOP-18
HOP-92 = system: HOP-92
OVCAR-4 = system: OVCAR-4
OVCAR-5 = system: OVCAR-5
SK-MEL-2 = system: SK-MEL-2
SNB-75 = system: SNB-75
SNB-78 = system: SNB-78

In the case of `CC1(C)CC(C2CC(C)(C)CC(C)(C)[C@H]2O)[C@@H](O)C(C)(C)C1` (some centres undefined), the GI50 (786-0) is reported as > 100 µM (inactive), the GI50 (A549) is reported as > 100 µM (inactive) and the GI50 (ACHN) is reported as > 100 µM (inactive). The GI50 (CCRF-CEM) was > 100 µM (inactive), the GI50 (COLO 205) was > 100 µM (inactive) and the GI50 (DMS-114) was > 100 µM (inactive). For the same compound, the GI50 (DMS-273) was > 100 µM (inactive), the GI50 (EKVX) was > 100 µM (inactive) and the GI50 (HCC 2998) was > 100 µM (inactive). For the same compound, the GI50 (HCT-116) was > 100 µM (inactive), the GI50 (HCT-15) was over 100 µM and the GI50 (HL-60) was > 100 µM (inactive). For the same compound, the GI50 (HOP-62) was > 10 µM (inactive), the GI50 (HT-29) was > 100 µM (inactive) and the GI50 (IGROV-1) was > 100 µM (inactive). The GI50 (K562) was > 100 µM (inactive), the GI50 (KM-20L2) was > 100 µM (inactive) and the GI50 (KM12) was > 100 µM (inactive). The GI50 (LOX IMVI) was > 100 µM (inactive), the GI50 (LXFL 529) was > 100 µM (inactive) and the GI50 (M14) was > 100 µM (inactive). For the same compound, the GI50 (M19-MEL) was > 100 µM (inactive), the GI50 (MOLT-4) was > 100 µM (inactive) and the GI50 (Malme-3M) was > 100 µM (inactive). The GI50 (NCI-H226) was > 100 µM (inactive), the GI50 (NCI-H23) was > 100 µM (inactive) and the GI50 (NCI-H460) was > 100 µM (inactive). The GI50 (NCI-H522) was > 100 µM (inactive), the GI50 (OVCAR-3) was > 100 µM (inactive) and the GI50 (OVCAR-8) was > 100 µM (inactive). For the same compound, the GI50 (RPMI-8226) was > 100 µM (inactive), the GI50 (SF-268) was > 100 µM (inactive) and the GI50 (SF-295) was > 100 µM (inactive). For the same compound, the GI50 (SF-539) was > 100 µM (inactive), the GI50 (SK-MEL-28) was > 100 µM (inactive) and the GI50 (SK-MEL-5) was > 100 µM (inactive). For the same compound, the GI50 (SK-OV-3) was > 100 µM (inactive), the GI50 (SN12C) was > 100 µM (inactive) and the GI50 (SNB-19) was > 100 µM (inactive). For the same compound, the GI50 (SR) was > 100 µM (inactive), the GI50 (SW-620) was > 100 µM (inactive) and the GI50 (TK-10) was > 100 µM (inactive). The GI50 (U-251) was > 100 µM (inactive), the GI50 (UACC-257) was > 100 µM (inactive) and the GI50 (UACC-62) was > 100 µM (inactive). For the same compound, the GI50 (UO-31) was > 100 µM (inactive) and the GI50 (XF498) was > 100 µM (inactive).

For `CN(N=O)C(=O)ON1C(=O)CCC1=O`, the GI50 (786-0) was > 100 µM (inactive), the GI50 (A498) was > 100 µM (inactive) and the GI50 (A549) was > 100 µM (inactive). The GI50 (ACHN) was > 100 µM (inactive), the GI50 (CAKI-1) was > 100 µM (inactive) and the GI50 (CCRF-CEM) was > 100 µM (inactive). For the same compound, the GI50 (DLD-1) was > 100 µM (inactive), the GI50 (DMS-114) was > 100 µM (inactive) and the GI50 (DMS-273) was > 100 µM (inactive). For the same compound, the GI50 (EKVX) was > 100 µM (inactive), the GI50 (HCC 2998) was > 100 µM (inactive) and the GI50 (HCT-116) was > 100 µM (inactive). For the same compound, the GI50 (HCT-15) was over 100 µM, the GI50 (HL-60) was > 100 µM (inactive) and the GI50 (HOP-18) was > 100 µM (inactive). The GI50 (HOP-62) was > 100 µM (inactive), the GI50 (HOP-92) was > 100 µM (inactive) and the GI50 (HT-29) was > 100 µM (inactive). The GI50 (IGROV-1) was > 100 µM (inactive), the GI50 (K562) was > 100 µM (inactive) and the GI50 (KM-20L2) was > 100 µM (inactive). The GI50 (KM12) was > 100 µM (inactive), the GI50 (LOX IMVI) was > 100 µM (inactive) and the GI50 (LXFL 529) was > 100 µM (inactive). The GI50 (M14) was > 100 µM (inactive), the GI50 (M19-MEL) was > 100 µM (inactive) and the GI50 (MOLT-4) was > 100 µM (inactive). For the same compound, the GI50 (Malme-3M) was > 100 µM (inactive), the GI50 (NCI-H226) was > 100 µM (inactive) and the GI50 (NCI-H23) was > 100 µM (inactive). For the same compound, the GI50 (NCI-H460) was 47.8 µM (inactive), the GI50 (NCI-H522) was > 100 µM (inactive) and the GI50 (OVCAR-3) was > 100 µM (inactive). The GI50 (OVCAR-4) was > 100 µM (inactive), the GI50 (OVCAR-5) was > 100 µM (inactive) and the GI50 (OVCAR-8) was > 100 µM (inactive). For the same compound, the GI50 (RPMI-8226) was > 100 µM (inactive), the GI50 (SF-268) was > 100 µM (inactive) and the GI50 (SF-295) was > 10 µM (inactive). For the same compound, the GI50 (SF-539) was > 100 µM (inactive), the GI50 (SK-MEL-28) was > 100 µM (inactive) and the GI50 (SK-MEL-2) was > 100 µM (inactive). For the same compound, the GI50 (SK-MEL-5) was > 100 µM (inactive), the GI50 (SK-OV-3) was > 100 µM (inactive) and the GI50 (SNB-19) was > 100 µM (inactive). For the same compound, the GI50 (SNB-75) was 54.1 µM (inactive), the GI50 (SNB-78) was > 100 µM (inactive) and the GI50 (SW-620) was > 100 µM (inactive). For the same compound, the GI50 (TK-10) was > 100 µM (inactive), the GI50 (UACC-257) was > 100 µM (inactive) and the GI50 (UACC-62) was > 100 µM (inactive). The GI50 (UO-31) was > 100 µM (inactive).
